For test [1], the target named is Human immunodeficiency virus type 1 protease (Human immunodeficiency virus 1) (UniProt Q72874). Description: Evaluated for the inhibition of HIV-1 Protease.
The target of test [2] is Human immunodeficiency virus type 1 integrase (Human immunodeficiency virus 1) (UniProt Q7ZJM1). Briefly: Inhibitory concentration against HIV-1 Integrase 3' chain processing.
Test [3] shares this target. Briefly: Inhibitory concentration against HIV-1 Integrase 3' chain transfer.
The species named for test [4] is Homo sapiens. Briefly: Antiviral activity against HIV virus induced infection in human PBLs cells. It counts as functional, cell-based.
The species named for test [5] is Homo sapiens. Description: Cytotoxicitic activity […] in human PBLs cells. It counts as functional, cell-based. For orientation: Tetrazolium dyes change colour on reduction, which living cells bring about.
The target of test [6] is Human immunodeficiency virus type 1 reverse transcriptase (Human immunodeficiency virus 1) (UniProt Q72547). Briefly: Inhibitory concentration against Reverse Transcriptase.
Test [7] can be described thus: Inhibition of compound against p7 nucleocapsid fluorescence intensity of the zinc finger ); NI = No inhibition. It counts as functional.
Test [8] concerns the target Human immunodeficiency virus type 1 protease (Human immunodeficiency virus 1) (UniProt Q72874).
Description: Inhibitory concentration against HIV-1 Protease
The target is the same in test [9]. The source holds these as a separate data set.

Molecules are shown by their SMILES. Calls of active or inactive are those of the source. The calls are words filed in the database; no cut-off is given here.

Human immunodeficiency virus type 1 integrase (Human immunodeficiency virus 1), sequence (Q7ZJM1 as listed by the source): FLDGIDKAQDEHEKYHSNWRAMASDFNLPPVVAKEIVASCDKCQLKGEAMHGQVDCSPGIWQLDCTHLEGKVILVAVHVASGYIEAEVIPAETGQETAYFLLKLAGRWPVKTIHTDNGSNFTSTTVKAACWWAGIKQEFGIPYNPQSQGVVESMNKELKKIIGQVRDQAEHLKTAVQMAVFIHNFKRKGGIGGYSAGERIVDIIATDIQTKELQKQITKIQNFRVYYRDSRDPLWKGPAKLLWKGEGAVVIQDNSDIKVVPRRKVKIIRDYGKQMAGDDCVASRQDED

`CC1(C)CC[C@]2(C(=O)O)CC[C@]3(C)C(=CC[C@@H]4[C@@]5(C)C[C@H](O)[C@H](O)[C@@](C)(C(=O)O)[C@H]5CC[C@]43C)[C@@H]2C1` came in with an ID50 in [1] of 35 µM.

As for `CC(C)c1cccc(C(C)C)c1NC(=O)C(=O)CC(=O)CC(c1ccccc1)c1c(O)oc2ccccc2c1=O` (configuration not stated), the ID50 in test [1] was determined as 31 µM.

`O=c1c(C(c2ccc3c(c2)OCO3)c2c(O)oc3ccccc3c2=O)c(O)oc2ccccc12` returned an ID50 in [1] of 30 µM.

In [1], `O=C(Oc1ccccc1)N(CCO)C(c1ccccc1)C(O)c1ccccc1` (configuration not stated) gave an ID50 of 32 µM. Same read-out and setting: in the case of `Cc1cn([C@H]2C[C@H](N=[N+]=[N-])[C@@H](COP(=O)(O)OP(=O)(O)OP(=O)(O)O)O2)c(=O)[nH]c1=O` it was 54 µM; in that of `O=c1oc2c(-c3ccccc3)cccc2c(O)c1-c1ccccc1`, 13 µM. Still for that read-out and setting: then `CC(=O)NC(Cc1ccsc1)(C(=O)O)C(=O)O`, with 23 µM. In the case of `O=C1C(O)=C(C(C2=C(O)C(=O)c3ccccc3C2=O)c2ccc(Cl)cc2Cl)C(=O)c2ccccc21`, in [1], the ID50 worked out at 24 µM. Turning to `CCCCCCc1cc2c(cc1O)OC(=O)C(C(c1ccccc1)c1c(O)oc3cc(O)c(CCCCCC)cc3c1=O)C2O` (configuration not stated), the ID50 in test [1] was found to be 0.32 µM.

Regarding `O=C1C(O)=C(C(C2=C(O)C(=O)c3ccccc3C2=O)c2ccc(C(C3=C(O)C(=O)c4ccccc4C3=O)C3=C(O)C(=O)c4ccccc4C3=O)cc2)C(=O)c2ccccc21`, the ID50 in [1] was 0.75 µM. `O=c1oc2cccc(O)c2c(O)c1Cc1ccccc1`: in test [1], the ID50 is 6 µM. On the same count and under the same terms, then `O=C1C2=C(C(=O)c3ccccc31)C(O)(S(=O)(=O)O)C(O)(S(=O)(=O)O)C1N=CC=CC21` (configuration not stated), with 2 µM. Turning to `O=C1Oc2ccccc2C(O)C1Sc1c(O)oc2ccccc2c1=O` (configuration not stated), the ID50 in [1] worked out at 21 µM. The same measure, in the same setting: in the case of `C[C@]12CCC(=O)C=C1CC[C@@H]1[C@@H]2[C@@H](O)C[C@@]2(C)[C@H]1CC[C@]2(O)C(=O)COC(=O)CCC(=O)O` it was 27 µM; in that of `O=c1oc2ccccc2c(O)c1-c1ccccc1`, 42 µM; in that of `CC(=O)OC1CCC2(C)C(C)C(C)CCC2(O)C1O` (configuration not stated), 16 µM. Still for that read-out and setting: in the case of `CC(C)CC(NC(=O)OCc1ccccc1)(C(=O)O)C(=O)O` it was 17 µM. For orientation: EC50 means the concentration at which the effect is half-maximal. A lower EC50 goes with an effect from little substance. What is called IC50 is the concentration that gives 50% inhibition. Turning to `O=c1c(C(c2ccc(C(c3c(O)oc4ccccc4c3=O)c3c(O)oc4ccccc4c3=O)cc2)c2c(O)oc3ccccc3c2=O)c(O)oc2ccccc12`, the ID50 came out at 1.5 µM in [2]; 0.7 µM in test [3]; 1.7 µM in [1]; 7.1 µM in test [6]; 1.7 µM in [8]. This molecule also had an EC50 in the test filed under Homo sapiens [4] of 11.5 µM. This molecule gave an IC50 in the test filed under Homo sapiens [5] of 54.8 µM. Also, the RFU result in [7] was “inactive”. In addition, in test [9], the ID50 result is “inactive”. As to `CCCC(=O)C1=C(O)C(Cc2c(O)c(C)c(O)c(C(=O)CCC)c2O)=C(O)C(C)(C)C1=O`, the ID50 in [1] was determined as 26 µM.
